Laboratory results taken from patent US9198902B2, “1,4-dihydropyridine-3,5-dicarboxylate derivatives and preparation and use thereof” (Xuanzhu Pharma Co., Ltd., priority 2011, dated 2015).
Where a name gives a salt, the structure may show the parent alone.

What was measured:
[1] = biological target: L-type calcium ion channels (Cavia porcellus, UniProt O35505); assay: L-type calcium ion channel inhibition, whole cell patch-clamp (electrophysiological method); format: cell-based; conditions: left ventricle muscle cells of guinea pigs, room temperature
L-type calcium ion channels, sequence (O35505 whole entry): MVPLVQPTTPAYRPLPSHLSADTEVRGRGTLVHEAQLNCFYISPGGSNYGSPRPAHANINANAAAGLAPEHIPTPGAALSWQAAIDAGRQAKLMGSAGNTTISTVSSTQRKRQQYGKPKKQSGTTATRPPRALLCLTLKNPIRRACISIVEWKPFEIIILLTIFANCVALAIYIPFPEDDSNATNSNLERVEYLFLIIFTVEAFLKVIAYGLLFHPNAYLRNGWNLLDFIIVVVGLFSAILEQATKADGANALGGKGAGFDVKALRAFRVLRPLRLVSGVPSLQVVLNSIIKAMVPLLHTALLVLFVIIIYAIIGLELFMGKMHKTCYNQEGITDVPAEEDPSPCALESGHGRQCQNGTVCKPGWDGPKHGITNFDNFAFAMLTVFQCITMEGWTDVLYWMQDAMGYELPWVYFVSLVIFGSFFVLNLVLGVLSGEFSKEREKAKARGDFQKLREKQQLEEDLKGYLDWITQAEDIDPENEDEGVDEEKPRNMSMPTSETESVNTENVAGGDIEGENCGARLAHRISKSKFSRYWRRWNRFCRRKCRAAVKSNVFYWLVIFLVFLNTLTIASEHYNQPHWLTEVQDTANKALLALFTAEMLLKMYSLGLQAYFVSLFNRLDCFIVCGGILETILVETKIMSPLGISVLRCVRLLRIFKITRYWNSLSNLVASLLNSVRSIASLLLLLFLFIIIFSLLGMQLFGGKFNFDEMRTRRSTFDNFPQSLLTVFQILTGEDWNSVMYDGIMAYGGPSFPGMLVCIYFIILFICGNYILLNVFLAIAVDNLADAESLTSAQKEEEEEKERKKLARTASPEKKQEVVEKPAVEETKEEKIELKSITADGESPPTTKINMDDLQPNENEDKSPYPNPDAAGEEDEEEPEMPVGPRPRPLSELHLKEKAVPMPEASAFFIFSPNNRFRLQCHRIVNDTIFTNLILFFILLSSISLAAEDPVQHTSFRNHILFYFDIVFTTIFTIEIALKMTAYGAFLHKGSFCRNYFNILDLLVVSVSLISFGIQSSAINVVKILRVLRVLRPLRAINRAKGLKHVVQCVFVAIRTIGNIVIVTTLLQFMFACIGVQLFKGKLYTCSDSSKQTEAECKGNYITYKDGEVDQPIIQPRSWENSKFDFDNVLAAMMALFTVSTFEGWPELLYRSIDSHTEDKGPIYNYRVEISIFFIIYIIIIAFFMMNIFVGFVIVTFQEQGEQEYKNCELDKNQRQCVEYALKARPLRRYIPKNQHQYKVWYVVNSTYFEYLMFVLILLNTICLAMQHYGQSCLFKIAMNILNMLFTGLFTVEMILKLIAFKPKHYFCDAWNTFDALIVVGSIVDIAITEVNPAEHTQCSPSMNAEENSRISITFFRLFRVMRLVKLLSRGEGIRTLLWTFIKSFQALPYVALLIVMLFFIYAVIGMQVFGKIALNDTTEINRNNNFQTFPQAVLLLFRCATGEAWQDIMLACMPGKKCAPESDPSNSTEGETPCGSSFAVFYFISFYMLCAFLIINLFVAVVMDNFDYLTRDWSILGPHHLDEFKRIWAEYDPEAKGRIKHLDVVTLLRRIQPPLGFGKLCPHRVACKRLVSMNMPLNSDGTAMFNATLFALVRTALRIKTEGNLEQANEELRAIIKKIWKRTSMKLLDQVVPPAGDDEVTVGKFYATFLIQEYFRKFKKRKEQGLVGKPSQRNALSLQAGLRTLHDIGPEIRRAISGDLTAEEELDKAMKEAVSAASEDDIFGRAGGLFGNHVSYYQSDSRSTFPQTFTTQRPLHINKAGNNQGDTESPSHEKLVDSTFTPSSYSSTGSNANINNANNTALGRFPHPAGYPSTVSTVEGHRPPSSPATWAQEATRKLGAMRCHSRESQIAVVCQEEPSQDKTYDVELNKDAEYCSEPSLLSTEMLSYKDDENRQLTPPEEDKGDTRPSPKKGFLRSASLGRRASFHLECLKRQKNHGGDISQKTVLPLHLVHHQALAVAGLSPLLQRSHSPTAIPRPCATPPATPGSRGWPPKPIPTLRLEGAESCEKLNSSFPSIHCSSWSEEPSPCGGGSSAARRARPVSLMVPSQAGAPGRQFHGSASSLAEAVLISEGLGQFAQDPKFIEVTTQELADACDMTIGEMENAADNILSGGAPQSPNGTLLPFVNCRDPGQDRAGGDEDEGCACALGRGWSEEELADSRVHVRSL
Excerpt: (§1) 2. Test for L- and T-Type Calcium Ion Channel Inhibitors
(§2) This experiment was assigned to HD Biosciences Corporation (Shanghai) and conducted with an electrophysiological method.
It was done with reference to the method as disclosed by Jung-Ha Lee, et. al., “Identification of T-Type α1H Ca^2+ Channels (Cav3.2) in Major Pelvic Ganglion Neurons”. J Neurophysiol 87:2844-2850, 2002.
(§3) Test samples were weighed accurately and diluted in a 3-fold stepwise dilution so that the final concentrations were as follows:
L-type test: Left ventricle muscle cells were separated from guinea pigs. The cells were used in the experiment in eight hours. The ionic current of a single cell was recorded by applying the whole cell patch-clamp technique at room temperature, wherein the clamp current was −80 mV, and the pulse interval was 10 s. The inward current (the activiation was started from 0 mV) is the L-type calcium current (ICa,L).
(§4) The electrode inner liquid (mM): CsCl 120, TEA-Cl 20, CaCl2 1, EGTA-CsOH 11, Hepes 10, Mg-ATP 5, pH7.3;
The electrode outer liquid (mM): NaCl 135, CsCl 5.4, CaCl2 1.8, MgCl2 1, Hepes 5, glucose 10, pH7.4.

[2] = biological target: Human Cav3.2 (Homo sapiens, UniProt O95180); assay: T-type calcium ion channel inhibition, FLIPR method; format: cell-based; conditions: Human Cav3.2 in stable HEK-293 cells, FLIPR Calcium 4 No-Wash kit
Human Cav3.2, sequence (O95180 whole entry): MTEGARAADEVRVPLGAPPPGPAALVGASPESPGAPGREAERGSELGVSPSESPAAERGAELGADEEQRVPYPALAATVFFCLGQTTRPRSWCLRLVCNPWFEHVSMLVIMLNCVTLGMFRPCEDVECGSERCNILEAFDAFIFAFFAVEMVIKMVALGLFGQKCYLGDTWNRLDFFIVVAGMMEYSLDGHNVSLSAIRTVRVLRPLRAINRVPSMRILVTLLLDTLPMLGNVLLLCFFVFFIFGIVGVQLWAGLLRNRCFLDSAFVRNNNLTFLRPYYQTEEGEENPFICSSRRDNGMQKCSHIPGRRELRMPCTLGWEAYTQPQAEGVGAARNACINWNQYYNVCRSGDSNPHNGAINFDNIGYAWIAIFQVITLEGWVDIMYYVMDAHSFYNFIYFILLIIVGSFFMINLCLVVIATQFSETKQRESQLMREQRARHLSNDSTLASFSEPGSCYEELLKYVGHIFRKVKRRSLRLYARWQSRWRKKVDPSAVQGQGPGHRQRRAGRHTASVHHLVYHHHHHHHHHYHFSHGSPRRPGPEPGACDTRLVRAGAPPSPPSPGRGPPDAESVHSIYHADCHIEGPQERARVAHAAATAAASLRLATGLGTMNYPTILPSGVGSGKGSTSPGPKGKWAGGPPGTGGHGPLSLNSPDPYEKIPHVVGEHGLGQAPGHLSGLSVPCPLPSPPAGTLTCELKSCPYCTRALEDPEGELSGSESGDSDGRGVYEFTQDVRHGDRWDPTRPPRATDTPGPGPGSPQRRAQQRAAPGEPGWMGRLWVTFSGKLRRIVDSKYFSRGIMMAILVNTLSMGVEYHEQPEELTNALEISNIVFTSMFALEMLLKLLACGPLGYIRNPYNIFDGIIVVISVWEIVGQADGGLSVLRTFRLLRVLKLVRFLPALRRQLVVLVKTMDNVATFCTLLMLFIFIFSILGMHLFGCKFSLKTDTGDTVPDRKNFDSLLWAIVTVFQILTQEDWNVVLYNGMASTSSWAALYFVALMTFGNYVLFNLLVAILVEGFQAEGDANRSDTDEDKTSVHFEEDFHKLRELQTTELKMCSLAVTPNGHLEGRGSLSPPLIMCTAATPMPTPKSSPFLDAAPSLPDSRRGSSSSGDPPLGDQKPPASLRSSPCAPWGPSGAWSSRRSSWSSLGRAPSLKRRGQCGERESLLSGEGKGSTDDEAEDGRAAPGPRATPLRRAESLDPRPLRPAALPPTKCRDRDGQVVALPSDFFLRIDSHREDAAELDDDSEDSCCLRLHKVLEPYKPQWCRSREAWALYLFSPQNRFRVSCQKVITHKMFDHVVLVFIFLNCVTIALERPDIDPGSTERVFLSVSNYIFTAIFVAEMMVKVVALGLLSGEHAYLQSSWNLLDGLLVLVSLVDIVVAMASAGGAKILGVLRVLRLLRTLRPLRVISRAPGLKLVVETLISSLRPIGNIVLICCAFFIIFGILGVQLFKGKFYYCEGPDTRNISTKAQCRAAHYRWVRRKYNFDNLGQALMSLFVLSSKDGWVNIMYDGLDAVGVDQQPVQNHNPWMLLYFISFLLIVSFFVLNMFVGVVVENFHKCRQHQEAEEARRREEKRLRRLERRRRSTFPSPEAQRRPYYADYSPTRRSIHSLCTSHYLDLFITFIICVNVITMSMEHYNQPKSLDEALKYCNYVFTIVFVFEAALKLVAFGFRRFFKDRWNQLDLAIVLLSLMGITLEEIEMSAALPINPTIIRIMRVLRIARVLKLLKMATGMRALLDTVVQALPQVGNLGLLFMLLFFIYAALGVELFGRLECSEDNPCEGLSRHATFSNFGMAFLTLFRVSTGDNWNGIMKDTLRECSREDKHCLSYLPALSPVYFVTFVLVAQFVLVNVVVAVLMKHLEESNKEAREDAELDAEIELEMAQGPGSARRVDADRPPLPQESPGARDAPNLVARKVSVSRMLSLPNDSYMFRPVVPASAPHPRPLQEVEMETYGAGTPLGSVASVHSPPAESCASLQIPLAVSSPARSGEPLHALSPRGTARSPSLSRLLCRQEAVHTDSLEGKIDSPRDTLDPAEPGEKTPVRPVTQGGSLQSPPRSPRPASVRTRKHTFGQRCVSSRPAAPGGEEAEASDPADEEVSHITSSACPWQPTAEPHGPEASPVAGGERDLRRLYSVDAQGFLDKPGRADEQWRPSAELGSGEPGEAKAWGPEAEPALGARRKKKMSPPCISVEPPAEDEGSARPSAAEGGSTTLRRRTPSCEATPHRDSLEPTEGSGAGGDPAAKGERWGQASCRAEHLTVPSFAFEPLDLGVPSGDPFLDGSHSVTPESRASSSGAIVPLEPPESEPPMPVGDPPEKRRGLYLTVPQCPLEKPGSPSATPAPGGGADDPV
Description: T-type tests for Compound 19 and Compound 20 were assigned to Chan Test Corporation, and conducted according to the FLIPR experimental procedure as follows.
It was done with reference to the method disclosed on page 48 of WO 2009/056934 A1.
Samples were weighed accurately and diluted in a 3-fold stepwise dilution so that the final concentrations were as follows: 100 μM, 30 μM, 10 μM, 3 μM, 1 μM, 0.3 μM, 0.1 μM, 0.03 μM, 0.01 μM, 0.003 μM.
T-type test: Human Cav3.2 was cloned in stable HEK-293 cells, and then the operation was conducted with FLIPR Calcium 4 No-Wash kit. The cell medium was removed. To an HEPES solution free of calcium ion was added 20 μL dye to dye for 30 minutes at a temperature of 37° C. This buffer free of calcium ion included NaCl, 137 mM; KCl, 0.5 mM; MgCl2 mM, 1 mM; HEPES, 10 mM; glucose, 10 mM. The pH value was adjusted to 7.4 with NaOH. After 30 minutes, the buffer was placed at room temperature for 30 minutes. Then 5 μL of compound to be tested, solvent or blank control were added. The compound was formulated with a buffer containing calcium ion, said buffer including KCl, 135 mM; CaCl2, 10.8 mM; MgCl2, 1 mM; HEPES, 10 mM; glucose, 10 mM. The collected fluorescence values were analyzed and the inhibition ratios were calculated.

[3] = tested on: SHRs (spontaneous hypertensive rats); assay: In vivo hypotensive activity in SHRs, tail-pinch method; conditions: male SHRs, 10 mg/kg po; for Max ΔMAP (mmHg ± SEM): measured 1-24 h after administration
Description: The in vivo hypotensive activity assay was conducted according to the tail-pinch method with reference to Folia pharmacol. Japon. 97, 115-126 (1991).
The agents to be tested, lercanidipine, barnidipine, amlodipine, azelnidipine, efonidipine and manidipine, were accurately weighed respectively. Each agent was dissolved in DMSO. To the resulting solution was added 50% of the corresponding volume of PEG400 so that the final concentration of each agent was 1 mg/ml, and the final concentration of DMSO was 3%.
The compounds to be tested, Compound 18, Compound 21, Compound 22, Compound 23, and Compound 26, were accurately weighed respectively. Each compound was dissolved in DMSO. To the resulting solution was added 50% of the corresponding volume of PEG400 so that the final concentration of each compound was 1 mg/ml, and the final concentration of DMSO was 3%.
The compounds to be tested, Compound 19 and Compound 20, were accurately weighed respectively. Each compound was suspended in 0.5% MC so that the final concentration of each compound was 1 mg/ml.
The test for hypotensive effect: Male SHRs (spontaneous hypertensive rats) were randomly allocated into a control group and an administration group. The administration was an intragastric administration. One hour before the administration, the measured blood pressure was used as the pre-administration basic blood pressure value. After the administration, the contractive pressure, the heart rate and the mean arterial pressure of SHRs at six time points, i.e. 1, 2, 4, 6, 8 and 24 hours after the administration, were measured with a Softron BP-98A non-invasive blood pressure instrument respectively.

[4] = tested on: SHRs; assay: In vivo hypotensive activity in SHRs, DSI implant-type remote blood pressure measurement; design: species or system rats; conditions: male SHRs, 10 mg/kg po, monitored 24 hours
Description: The in vivo hypotensive activity assay was conducted according to DSI experimental procedure with reference to page 56 of WO 2009/056934 A1. The agents to be tested, lercanidipine, barnidipine, amlodipine, azelnidipine, efonidipine and manidipine, were accurately weighed. Each agent was dissolved in DMSO. To the resulting solution was added 50% of the corresponding volume of PEG400 so that the final concentration of each agent was 1 mg/ml, and the final concentration of DMSO was 3%. […] Each compound was dissolved in DMSO. […] The compound to be tested, Compound 15, was accurately weighed. This compound was dissolved in DMSO. […] The compound to be tested, Compound 16 (optical activity)+108.34° and Compound 17 (optical activity optical activity)+36.4°, were accurately weighed. […] The test for hypotensive effect: Male SHRs were subjected to an abdominal aorta implantation using an implant, and used in the test after 7-10 days of recovery. The administration was an intragastric administration. One hour before the administration, the measured blood pressure was used as the pre-administration basic blood pressure value. After the administration, SHRs, allowed free access to the diet, were continuously monitored with a DSI implant-type blood pressure remote measurement system for 24 hours.

[5] = tested on: T-type calcium ion channels; assay: T-type calcium ion channel inhibition, whole cell patch-clamp (electrophysiological method); format: cell-based; conditions: cerebral cortex nerve cells of suckling mice, room temperature
Excerpt: as §1, §2
It was done with reference to the method as disclosed by Jung-Ha Lee, et. al., “Identification of T-Type α1H Ca^2+ Channels (Cav3.2) in Major Pelvic Ganglion Neurons”.
as §3
T-type test: Cerebral cortex nerve cells were separated from suckling mice, and used in the experiment after 7 days of cultivation. The ionic current of a single cell was recorded by applying the whole cell patch-clamp technique at room temperature, wherein the clamp current was −90 mV, and the pulse interval was 10 s. The inward current (the activiation was started from −20 mV) is the T-type calcium current (ICa,T).
as §4

IC50 [1] [µM]	IC50 [2] [µM]	IC50 [5] [µM]	Structure (SMILES)	ΔMAP > 20 (mmHg) Duration time of action [3] [h]	Max ΔMAP (mmHg ± SEM) [3] [mmHg]	Max ΔMAP (mmHg ± SEM) [4] [mmHg]	ΔMAP > 20 (mmHg) Duration time of action [4] [h]
0.59			COC(=O)C1=C(C)NC(C)=C(C(=O)OC2(C)CCN(CCC(c3ccccc3)c3ccccc3)C2)[C@@H]1c1cccc([N+](=O)[O-])c1 (stereo partly drawn) [Compound 14, (4R)-3-[1-(3,3-diphenylpropyl)-3-methylpyrrolidin-3-yl] 5-methyl 2,6-dimethyl-4-(3-nitrophenyl)-1,4-dihydropyridine-3,5-dicarboxylate]				
	75.4		COC(=O)C1=C(C)NC(C)=C(C(=O)O[C@]2(C)CCN(CC(c3ccccc3)c3ccccc3)C2)[C@H]1c1cccc([N+](=O)[O-])c1 [Compound 19, (S)-3-[(R)-1-(2,2-diphenylethyl)-3-methylpyrrolidin-3-yl] 5-methyl 2,6-dimethyl-4-(3-nitrophenyl)-1,4-dihydropyridine-3,5-dicarboxylate]	24	72 ± 8		
1.39			CC1=C(C(=O)OC(C)C)C(c2cccc([N+](=O)[O-])c2)C(C(=O)OC2CN(C(c3ccccc3)c3ccccc3)C2)=C(N)N1 (stereo not drawn) [azelnidipine, reference compound]	24	79 ± 13	40 ± 5	11
1.11	> 100		CCOC(=O)C1=C(COCCN)NC(C)=C(C(=O)OC)C1c1ccccc1Cl (stereo not drawn) [amlodipine, reference compound]	24	74 ± 8	48 ± 13	16
0.58	30.8	8.15	COC(=O)C1=C(C)NC(C)=C(C(=O)O[C@H]2CCN(Cc3ccccc3)C2)[C@H]1c1cccc([N+](=O)[O-])c1 [barnidipine, reference compound]	14	81 ± 10	60 ± 6	9
0.84		> 10	COC(=O)C1=C(C)NC(C)=C(C(=O)OC(C)(C)CN(C)CCC(c2ccccc2)c2ccccc2)C1c1cccc([N+](=O)[O-])c1 (stereo not drawn) [lercanidipine, reference compound]	23	77 ± 15	54 ± 7	14
0.59	1.95	2.28	COC(=O)C1=C(C)NC(C)=C(C(=O)O[C@@]2(C)CCN(CCC(c3ccccc3)c3ccccc3)C2)[C@H]1c1cccc([N+](=O)[O-])c1 [Compound 16, (S)-3-[(S)-1-(3,3-diphenylpropyl)-3-methylpyrrolidin-3-yl] 5-methyl 2,6-dimethyl-4-(3-nitrophenyl)-1,4-dihydropyridine-3,5-dicarboxylate]			57 ± 5	11
	66.9		COC(=O)C1=C(C)NC(C)=C(C(=O)O[C@@]2(C)CCN(CC(c3ccccc3)c3ccccc3)C2)[C@H]1c1cccc([N+](=O)[O-])c1 [Compound 20, (S)-3-[(S)-1-(2,2-diphenylethyl)-3-methylpyrrolidin-3-yl] 5-methyl 2,6-dimethyl-4-(3-nitrophenyl)-1,4-dihydropyridine-3,5-dicarboxylate]	24	80 ± 14		
1.28			COC(=O)C1=C(C)NC(C)=C(C(=O)OC2(C)CCN(CCC(c3ccccc3)c3ccccc3)C2)[C@H]1c1cccc([N+](=O)[O-])c1 (stereo partly drawn) [Compound 15, (4S)-3-[1-(3,3-diphenylpropyl)-3-methylpyrrolidin-3-yl] 5-methyl 2,6-dimethyl-4-(3-nitrophenyl)-1,4-dihydropyridine-3,5-dicarboxylate]			56 ± 1	14
		3.2	COC(=O)C1=C(C)NC(C)=C(C(=O)OC2(C)CCN(CCC(c3ccccc3)c3ccccc3)C2)C1c1cccc([N+](=O)[O-])c1 (stereo not drawn) [Compound 2 hydrochloride, 3-[1-(3,3-diphenylpropyl)-3-methylpyrrolidin-3-yl]5-methyl 2,6-dimethyl-4-(3-nitrophenyl)-1,4-dihydropyridine-3,5-dicarboxylate]				
0.93	9.41		COC(=O)C1=C(C)NC(C)=C(C(=O)O[C@]2(C)CCN(CCC(c3ccccc3)c3ccccc3)C2)[C@H]1c1cccc([N+](=O)[O-])c1 [Compound 17, (S)-3-[(R)-1-(3,3-diphenylpropyl)-3-methylpyrrolidin-3-yl] 5-methyl 2,6-dimethyl-4-(3-nitrophenyl)-1,4-dihydropyridine-3,5-dicarboxylate]			57 ± 5	16

Structure (SMILES)	IC50 [1] [µM]	IC50 [2] [µM]	IC50 [5] [µM]	ΔMAP > 20 (mmHg) Duration time of action [3] [h]	Max ΔMAP (mmHg ± SEM) [3] [mmHg]	Max ΔMAP (mmHg ± SEM) [4] [mmHg]	ΔMAP > 20 (mmHg) Duration time of action [4] [h]
COC(=O)C1=C(C)NC(C)=C(C(=O)OC2(C)CCN(Cc3ccccc3)C2)C1c1cccc([N+](=O)[O-])c1 (stereo not drawn) [Compound 1 hydrochloride, 3-(1-benzyl-3-methylpyrrolidin-3-yl) 5-methyl 2,6-dimethyl-4-(3-nitrophenyl)-1,4-dihydropyridine-3,5-dicarboxylate]			4.47				
